The results in this text go back to ChEMBL document CHEMBL1127107, “The affinity of the excised binding domain of FK-506 for the immunophilin FKBP12” (Bioorg Med Chem Lett, 1993).

The target of this experiment is Peptidyl-prolyl cis-trans isomerase FKBP1A (Homo sapiens, UniProt P62942). Put plainly: The compound was evaluated for its affinity to the binding domain of immunophilin FK506 binding protein 12.
Chain of Peptidyl-prolyl cis-trans isomerase FKBP1A (P62942 whole entry, the tested form may be a part): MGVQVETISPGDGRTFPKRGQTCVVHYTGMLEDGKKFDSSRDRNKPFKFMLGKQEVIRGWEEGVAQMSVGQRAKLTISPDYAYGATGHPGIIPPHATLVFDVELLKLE

In general, Kd refers to the free concentration of one partner at which half of the binding sites on the other are occupied at equilibrium, for simple one-to-one binding. Read a low Kd as higher affinity. Regarding `COC[C@H]1O[C@@](O)(C(=O)C(=O)N2CCCC[C@H]2C(=O)OC/C(C)=C/[C@@H]2CC[C@@H](O)[C@H](OC)C2)[C@H](C)C[C@@H]1OC`, the Kd is 0.01 µM.
